These results are taken from the METLIN SMRT retention time set (Domingo-Almenara et al. 2019).

Each structure is given as a SMILES string.

The nature of the data set: gradient 5% acetonitrile 3 min, to 50% in 2 min, to 85% in 15 min, held 3 min, 100 µL/min. The following applies: column: Zorbax Extend-C18 2.1 x 50 mm; eluents: water / acetonitrile, 0.1% formic acid. A digest of the protocol:
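The system's dead and dwell volumes were 40 μL and 900 μL, with a Zorbax Extend-C18 column (2.1 × 50 mm, 1.8 μm) run at 100 μL/min in water and acetonitrile containing 0.1% formic acid each. Pure standards were analyzed in mixtures of ~100 molecules by HPLC–quadrupole time-of-flight mass spectrometry in positive and negative ionization mode. Retention time was assigned from computationally picked, manually inspected adduct peaks.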
`COCCN1CC(CO)C2(CCN(Cc3ccc(OC)cc3OC)CC2)C1` (centres undefined) showed an RP-LC retention time of 540 s.
In the case of `Cc1ccc(-c2cc3c(=O)n(Cc4nc(-c5ccc(Cl)cc5)no4)ncn3n2)c(C)c1` it was 1320 s.
In the case of `CN(CC1CCOCC1)C(=O)Cc1ccsc1`, the RP-LC retention time was 691 s.
`Cc1cc(C)c(S(=O)(=O)N2CCCC(C(=O)Nc3ccc4c(c3)OCO4)C2)c(C)c1` (centres undefined) came in with an RP-LC retention time of 974 s.
As for `CC1CCCN(c2ccc(-c3noc(CN4CCN(C(C)C)CC4)n3)cn2)C1` (centres undefined), the figure is 628 s.
Regarding `O=C1Nc2ccccc2SC1C(=O)N1CCC(C(=O)N2CCN(c3ccccc3F)CC2)CC1` (centres undefined), the RP-LC retention time stood at 784 s.
For `CCOc1ccc(OCC)c(NC(=O)c2cn3c4c(ccc(Cl)c4c2=O)OCC3)c1`, the RP-LC retention time worked out at 1100 s.
Turning to `Cc1ccc(CS(=O)(=O)N2CCC(C3CCNC3)CC2)cc1C` (centres undefined), the RP-LC retention time turned out to be 666 s.
As to `O=C(CN1C(=O)C2CCCCN2c2ccc(S(=O)(=O)N3CCCC3)cc21)NCc1ccccn1` (centres undefined), the RP-LC retention time is 654 s.
In the case of `CCC1Oc2ccc(S(=O)(=O)N3CCC(C(=O)N(C)C4CCCCC4)CC3)cc2NC1=O` (centres undefined) it was 917 s; in that of `CCOc1ccc(-c2csc(Cc3nc(-c4ccc(C)cc4)no3)n2)cc1`, 1310 s; in that of `O=C([C@@H]1C[C@H](F)CN1S(=O)(=O)c1cccc(F)c1)N1CCCCC1`, 805 s.
`O=C(NC1CCN(c2cc(-c3ccc(Cl)cc3)[nH]n2)C1)c1ccc2c(c1)OCO2` (centres undefined) returned an RP-LC retention time of 715 s.
As for `Cc1ccsc1CN1CCc2nc(N3CCN(c4ccccc4F)CC3)ncc2C1`, the figure is 780 s.
In the case of `Cc1[nH]c(C)c(S(=O)(=O)N2CCC(C(=O)NC3CCCCC3)CC2)c1C(=O)N1CCCC1` it was 676 s.
`CC(C)n1cnc2ccc(-c3noc(COc4ccccc4)n3)cc21` came in with an RP-LC retention time of 770 s.
As for `COc1ccc(OCC2c3cc(OC)c(OC)cc3CCN2C(=O)CC(C)C)cc1` (centres undefined), the figure is 891 s; as for `Cc1csc(-c2cc(S(=O)(=O)Nc3cc(Cl)ccc3F)cn2CC(=O)N2CCCC2)n1`, 924 s.
Consider `CCC(=O)N1CCc2cc(N3CC(C(=O)NCc4cc(F)cc(F)c4)CC3=O)ccc21` (centres undefined), for which the RP-LC retention time came to 734 s.
With `CCOC(=O)N1CCC(c2nnc(Cc3ccc(OC)cc3)s2)CC1`, the RP-LC retention time was found to be 788 s.
`O=C(C1CC1)N1CCc2sc(S(=O)(=O)NCc3ccc(Cl)cc3)cc2C1`: the RP-LC retention time amounted to 856 s.
`O=C(NCc1ccnc(N2CCSCC2)c1)Nc1ccc(Cl)cc1` came in with an RP-LC retention time of 649 s.
`Cc1cc(=O)n(CC(=O)Nc2ccc3c(c2)OCO3)c(-c2ccc(F)cc2)n1`: the RP-LC retention time amounted to 974 s.
In the case of `CCn1cc(-c2ccc(C)cc2)cc1C(=O)NCCN(C)C` it was 680 s; in that of `Cc1ccc(C)c(N2CCN(c3ccnc(SCC(=O)Nc4ccc(F)c(Cl)c4)n3)CC2)c1`, 997 s.
In the case of `COc1ccc(Cl)cc1NS(=O)(=O)c1cn(CC(C)C)c2ncccc12` it was 765 s; in that of `CCCNC(=O)N(C1CCOCC1)C1CCN(C(=O)CCc2c[nH]c3ccccc23)CC1`, 730 s.
On to `O=C(NCc1cccc(Br)c1)c1ccc2c(c1)ncn2CCN1CCCC1`, for which the RP-LC retention time is 599 s.
As for `COc1cc(NC(=O)C2CCN(S(=O)(=O)c3cn(C(C)C)cn3)CC2)cc(OC)c1`, the figure is 751 s; as for `COc1ccc(-c2nc3cnccn3c2Nc2cc(C)cc(C)c2)cc1OC`, 874 s.
In the case of `COCCNC(=O)CCc1cn(Cc2ccccc2C)c2ccccc12` it was 919 s; in that of `CCc1nc(-c2cccc(-c3noc(CNS(=O)(=O)c4ccc(F)cc4)n3)c2)cs1`, 1060 s; in that of `COC1CCN(CC2CCCCCN2C(=O)c2ccoc2)CC1` (centres undefined), 596 s.
In the case of `NC(=O)C1(N2CCCCC2)CCN(C(=O)c2c(-c3ccccc3)nnc3ccccc23)CC1` it was 588 s; in that of `Cc1sc2ccn(C)c(=O)c2c1C(=O)N1CCN(c2cccc(Cl)c2)CC1`, 844 s.
Consider `Cc1ccccc1-c1nc2cnccn2c1NCCC(=O)NC1CC1`, for which the RP-LC retention time was 568 s.
In the case of `COc1ccccc1OCCNC(=O)Cn1nc2c(cc1=O)CCCC2` it was 704 s; in that of `COc1cccc(NC(=O)CCC2CCN(S(=O)(=O)c3ccccc3)CC2)c1`, 936 s.
On to `O=C(Cn1ccc2ccc(N3CCOCC3)nc21)N1CCN(c2ccccc2)CC1`, for which the RP-LC retention time was 879 s.
In the case of `OC[C@H]1O[C@@H](n2cnc3c(N[C@H]4CCC[C@@H]4O)ncnc32)[C@@H](O)C1O` (some centres undefined) it was 590 s.
`CCC(C)NC(=O)Cn1c(=O)cc(-c2nc(C3CC3)no2)c2ccccc21` (centres undefined) returned an RP-LC retention time of 863 s.
In the case of `CCOc1ccc(-c2csc(C)n2)cc1S(=O)(=O)NCc1ccccc1` it was 996 s.
In the case of `Cc1ccc(-c2noc(Cn3cnc4c(cnn4-c4ccc(C(C)C)cc4)c3=O)n2)cc1C` it was 1330 s.
The compound `O=C(NCCN1CCOCC1)c1cc2n(n1)CCCN(Cc1ccc(F)cc1)C2=O` displayed an RP-LC retention time of 606 s.
In the case of `O=C(NCc1ccc(Br)cc1)C1CCN(c2nnc(-c3ccccc3)o2)CC1` it was 884 s; in that of `CC(C)n1cnc2ccc(-c3noc(-c4cccc(C#N)c4)n3)cc21`, 761 s; in that of `Cc1ccc(S(=O)(=O)N2CC(=O)N(c3ccc(F)cc3)C(C)(C(=O)NC3CCCC3)C2)cc1` (centres undefined), 956 s.
In the case of `Cc1nc(Nc2ccc(F)cn2)sc1C(=O)NC(C)c1ccc(F)cc1` (centres undefined), the RP-LC retention time was 887 s.
Compound `CCNC(=O)c1cc(C)nc2c(C)cc(C)cc12` registered an RP-LC retention time of 594 s.
With `CC(C)(C)c1ccc(C(=O)NC2CCN(c3cc(-c4ccc(Cl)cc4)[nH]n3)C2)cc1` (centres undefined), the RP-LC retention time was determined as 976 s.
`CCN1C(=O)COc2ccc(-c3noc(-c4ccccc4C)n3)cc21`: the RP-LC retention time is 1230 s.
In the case of `Cc1cccc(NC(=O)C2CCN(S(C)(=O)=O)c3ccccc3O2)c1` (centres undefined), the RP-LC retention time is 895 s.
As for `CCCN1CC(Oc2ccc(-c3noc(C4CC4)n3)cc2)C1`, the figure is 653 s; as for `CCOc1ccccc1C(=O)NCCc1csc(-c2cccnc2)n1`, 668 s.
`O=c1c(=O)n(-c2ccccc2)ccn1Cc1nc(-c2ccc(Cl)cc2)no1` yielded an RP-LC retention time of 877 s.
The compound `CCn1cnc(S(=O)(=O)N2CCCC(C(=O)NCc3ccc(F)cc3)C2)c1` (centres undefined) had an RP-LC retention time of 712 s.
As to `O=C(Nc1c(-c2ccccc2)nc2ccccn12)c1ccc(Cl)c([N+](=O)[O-])c1`, the RP-LC retention time was determined as 696 s.
In the case of `Cc1nc(C2(C)CCN(S(=O)(=O)c3cc(F)ccc3C)CC2)no1` it was 948 s; in that of `COCCn1cc(C(=O)NC2CCCCCC2)c2nn(-c3ccccc3)c(=O)c-2c1`, 1010 s.
`O=C1CCCc2cc(S(=O)(=O)NCC3CCN(Cc4cccc(F)c4)CC3)ccc2N1`: the RP-LC retention time stood at 606 s.
The compound `Cc1cc(=O)n(CC(=O)Nc2ccc3c(c2)OCCO3)c(N2CCCCC2)n1` yielded an RP-LC retention time of 645 s.
With `O=C(Nc1nnc(SCc2cn3ccccc3n2)s1)C1(c2cccs2)CCCC1`, the RP-LC retention time was 611 s.
As for `O=C(CSCc1ccccc1)Nc1ccc(CC(=O)NC2CC2)cc1`, the figure is 705 s; as for `Cc1ccc(C)c(NC(=O)Cn2nc3c(N4CCC(C)CC4)nccn3c2=O)c1`, 864 s; as for `CC(C)(C)CC(=O)N1CCc2nc(-c3ccccc3)ncc2C1`, 934 s.
As for `O=C(NC1CCCCC1)N1CCC(c2noc(-c3ccncc3)n2)C1` (centres undefined), the figure is 727 s; as for `COCC(=O)N1CCN(c2nc(CN3CCC(C)CC3)cs2)CC1`, 570 s.
Consider `Cc1cccc(CNC(=O)c2ccc3c(c2)Sc2ncccc2C(=O)N3C)c1`, for which the RP-LC retention time was 796 s.
In the case of `COc1cc(-n2cnc3cc(C(=O)NCC4CCCO4)ccc32)cc(OC)c1OC` (centres undefined) it was 660 s; in that of `Cc1ccc(Cn2c(N3CCCC(C(=O)NC4CCCCC4)C3)nc3ccsc3c2=O)cc1` (centres undefined), 1020 s; in that of `CCOC(=O)c1ccccc1NC(=O)CN1CCC(Cn2cnc3ccccc32)CC1`, 556 s.
As for `CC(C)(C)C(=O)Nc1nc2cc3c(cc2s1)OCO3`, the figure is 823 s; as for `Cc1cc(N2CCN(C)CC2)n2nc(CN3CCN(c4ccc(Cl)cc4)CC3)nc2n1`, 572 s.
As for `Cc1nn(C)c2nc(OC(C)C(=O)NCc3ccc(Cl)cc3)cc(C(F)(F)F)c12` (centres undefined), the figure is 1020 s; as for `CN(C)c1ncncc1N1CCC(C(=O)NC2CCCCCC2)CC1`, 624 s; as for `Cc1ccc2nc(Nc3ncc4c(n3)CC(C)CC4=O)nc(C)c2c1` (centres undefined), 651 s.
Turning to `COc1cc(OC)cc(-c2nc(-c3ccc4c(c3)ncn4CCN3CCCCC3)no2)c1`, the RP-LC retention time was 680 s.
As for `Cc1noc(C2CCCCCN2C(=O)NC(C)C)n1` (centres undefined), the figure is 708 s; as for `CCCn1cc(CCNS(=O)(=O)c2ccc(Cl)cc2)c2cccnc21`, 891 s.
